{
  "source": "patent US20070202547A1",
  "about": "“Methods For Detecting Substances Which Bind To The Amyloid Precursor Protein Or Beta Amyloid Fragments, And Binding Compounds” (priority 2004, published 2007)",
  "key": {"[1]": {"target": "APP (Homo sapiens, UniProt P05067)", "sequence (P05067 18-770)": "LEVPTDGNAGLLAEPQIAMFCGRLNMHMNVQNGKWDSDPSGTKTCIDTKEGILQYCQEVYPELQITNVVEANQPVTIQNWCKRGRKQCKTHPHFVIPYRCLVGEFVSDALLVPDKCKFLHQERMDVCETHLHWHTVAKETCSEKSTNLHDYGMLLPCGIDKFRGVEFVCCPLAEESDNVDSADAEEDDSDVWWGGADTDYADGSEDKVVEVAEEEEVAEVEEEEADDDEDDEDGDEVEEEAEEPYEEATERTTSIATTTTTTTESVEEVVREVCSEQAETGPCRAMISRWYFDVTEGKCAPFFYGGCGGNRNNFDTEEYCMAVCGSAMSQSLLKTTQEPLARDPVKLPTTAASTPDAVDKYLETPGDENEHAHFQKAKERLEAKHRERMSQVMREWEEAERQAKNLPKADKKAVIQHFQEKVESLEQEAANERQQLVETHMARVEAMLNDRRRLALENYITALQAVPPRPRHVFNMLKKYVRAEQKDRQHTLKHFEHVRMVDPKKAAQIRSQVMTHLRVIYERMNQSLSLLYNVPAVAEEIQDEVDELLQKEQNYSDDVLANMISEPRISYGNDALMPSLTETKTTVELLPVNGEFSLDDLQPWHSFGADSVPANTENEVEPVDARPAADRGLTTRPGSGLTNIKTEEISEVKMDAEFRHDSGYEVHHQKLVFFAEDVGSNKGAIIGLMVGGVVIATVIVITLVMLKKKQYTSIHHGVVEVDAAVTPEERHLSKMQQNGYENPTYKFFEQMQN", "test": "Biacore S51 binding to immobilized biotinylated APP", "conditions": "Biacore S51, SA-coated sensor chip", "description": "(§1) The compounds of formula (I) are believed to inhibit APP cleavage function by binding APP. The binding of the compound of Example 1 to APP was assayed by BiacoreS51. Biotinylated APP and biotinylated sAPPβ were immobilized to a SA-coated sensor chip. A titration of Example 1 was injected and the binding response for each concentration of Example 1 was obtained for both proteins. FIG. 5 is a graph of response units for […] (◯) or the BACE 1 inhibitor Statine-Val ( ? ) binding to APP."}, "[2]": {"system": "H4 neuroglioma cells expressing CTF99", "test": "Secreted Aβ42 and Aβ40 in H4 neuroglioma cells expressing CTF99 (ECL)", "format": "cell-based", "conditions": "20 h treatment, conditioned media, FIG. 4", "description": "The compound of Example 1 was titrated into H4 neuroglioma cells expressing CTF99. The cells were treated with the compound of Example 1 for 20 h and conditioned media was harvested."}, "[3]": {"system": "APP variant", "test": "Antibody-masking ALPHA assay on biotinylated APP variant (Examples 5A/5B)", "format": "binding", "conditions": "antibody to C-terminal region of Aβ (5A) and LN27 to N-terminal region of APP (5B); pH 4.5, 37° C., 1 hour", "description": "A biotinylated APP variant (400 nM) was combined with Examples 1-3 under assay conditions (50 mM sodium acetate, pH 4.5; 1x Protease Inhibitor cocktail (Roche cat # 1836153); 100 μg/mL bovine serum albumin, 0.2% CHAPS). Incubations with vehicle, including DMSO (compound diluent), and incubations lacking the APP variant were carried out as controls for each experiment. Each mixture was incubated at 37° C. for 1 hour.\nThereafter, 70 μL of each incubation mixture was placed in its own well of a 96-well plate. 5 μL of 1 M Tris-Cl, pH 8.0 was added to each well to neutralize any binding reaction.\nIn Example 5A, a mixture of ALPHA beads was prepared from\n(1) 20 μg/mL streptavidin donor beads;\n(2) 20 μg/mL Protein A acceptor beads (from AlphaScreen General IgG (Protein A) Detection Kit Perkin Elmer Life Sciences; 10,000 pts (Part Number 6760617M)), containing 150 ng/mL of a rabbit polyclonal antibody directed against the C-terminal region of Aβ; and\n(3) 0.1 % bovine serum albumin.\nThe beads were combined in a phosphate buffered saline.\nIn Example 5B, a mixture of ALPHA beads was prepared from […]\nThe following day, the plates were read using ALPHAQUEST, to measure the degree of binding of the antibodies. […]"}, "[4]": {"target": "gamma-secretase (Homo sapiens, UniProt P05067)", "sequence (P05067 whole entry)": "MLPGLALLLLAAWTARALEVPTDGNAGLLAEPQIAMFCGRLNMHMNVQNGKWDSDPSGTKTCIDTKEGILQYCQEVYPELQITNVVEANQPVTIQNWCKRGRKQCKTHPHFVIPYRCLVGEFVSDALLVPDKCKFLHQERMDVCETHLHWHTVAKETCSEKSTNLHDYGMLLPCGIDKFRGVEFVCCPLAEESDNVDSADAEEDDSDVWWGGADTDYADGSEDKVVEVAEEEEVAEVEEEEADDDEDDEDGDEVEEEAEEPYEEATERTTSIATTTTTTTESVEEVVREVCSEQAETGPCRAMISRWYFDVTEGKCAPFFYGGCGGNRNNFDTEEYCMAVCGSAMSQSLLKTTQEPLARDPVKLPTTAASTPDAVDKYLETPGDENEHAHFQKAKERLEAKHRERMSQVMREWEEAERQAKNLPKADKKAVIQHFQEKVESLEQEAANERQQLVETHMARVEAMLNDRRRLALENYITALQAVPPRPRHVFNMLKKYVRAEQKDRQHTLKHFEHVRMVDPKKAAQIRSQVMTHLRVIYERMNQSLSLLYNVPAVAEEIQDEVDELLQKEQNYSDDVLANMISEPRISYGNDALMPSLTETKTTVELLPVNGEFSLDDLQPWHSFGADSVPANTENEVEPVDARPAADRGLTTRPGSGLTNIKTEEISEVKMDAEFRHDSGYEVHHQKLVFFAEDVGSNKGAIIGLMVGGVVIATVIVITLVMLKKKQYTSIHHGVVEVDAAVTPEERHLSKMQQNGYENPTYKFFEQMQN", "test": "Gamma-secretase cleavage of CTFβ substrate (HeLa cell membrane extract)", "format": "biochemical", "conditions": "Aβ40 detection with 6E-10/G2-10, read-out: CTFβ CLEAVAGE AT POSITION 40", "description": "Accordingly, Examples 1-4 were tested for their ability to inhibit gamma-secretase cleavage of both a full-length CTFβ substrate, as described in Li, 2000, Proc. Natl Acad Sci. 97:6138-6143. The assays were carried out as follows:\nInhibition of CTFβ Cleavage\n• 10 μL 10× protease inhibitor cocktail (Roche, cat # 1836153) • 25 μL 4× Buffer (50 mM PIPES pH7.0, 150 mM KCl, 5 mM MgCl2, 5 mM CaCl2) • 2 μL 10% CHAPSO • 5 μL HeLa cell membrane extract characterized for gamma-secretase activity • 7 μL 25 μM bacterially expressed CTFβ • 51 μL water • 1 μL compound in DMSO The reactions were incubated at 37° C. for 150 min and quenched with 25 μL 5× RIPA buffer (750mM NaCl, 5% NP-40, 2.5% DOC, 0.5% SDS, 250 mM Tris H8.0). Detection:\nGamma-secretase cleavage of the CTFβ substrate was assessed by incubating 50 μL of the reaction with 25 μL of 4 μg/mL biotinylated antibody 6E-10 which is specific for the N-terminal region of Aβ, and 25 μL of 1.5 μg/mL of a ruthinylated antibody G2-10, which is specific to the C-terminal region of Aβ40. The C-terminal region is present only after gamma secretase cleavage of Aβ. The antibodies were allowed to bind overnight at room temperature. The following day, 25 μL of 80 μg/mL streptavidin-coated Dynabeads (M-280) were added to each reaction, allowed to bind for 30 minutes, and quenched with 275 μL IGEN assay buffer. Quantification of the gamma-secretase cleavage products was carried out using an Origen Analyzer."}, "[5]": {"target": "T1, sAPPβ (Homo sapiens, UniProt P05067)", "T1 construct": "Biotinylated APP and biotinylated sAPPβ were immobilized to a SA-coated sensor chip", "T1 sequence (P05067 18-671 limits assumed)": "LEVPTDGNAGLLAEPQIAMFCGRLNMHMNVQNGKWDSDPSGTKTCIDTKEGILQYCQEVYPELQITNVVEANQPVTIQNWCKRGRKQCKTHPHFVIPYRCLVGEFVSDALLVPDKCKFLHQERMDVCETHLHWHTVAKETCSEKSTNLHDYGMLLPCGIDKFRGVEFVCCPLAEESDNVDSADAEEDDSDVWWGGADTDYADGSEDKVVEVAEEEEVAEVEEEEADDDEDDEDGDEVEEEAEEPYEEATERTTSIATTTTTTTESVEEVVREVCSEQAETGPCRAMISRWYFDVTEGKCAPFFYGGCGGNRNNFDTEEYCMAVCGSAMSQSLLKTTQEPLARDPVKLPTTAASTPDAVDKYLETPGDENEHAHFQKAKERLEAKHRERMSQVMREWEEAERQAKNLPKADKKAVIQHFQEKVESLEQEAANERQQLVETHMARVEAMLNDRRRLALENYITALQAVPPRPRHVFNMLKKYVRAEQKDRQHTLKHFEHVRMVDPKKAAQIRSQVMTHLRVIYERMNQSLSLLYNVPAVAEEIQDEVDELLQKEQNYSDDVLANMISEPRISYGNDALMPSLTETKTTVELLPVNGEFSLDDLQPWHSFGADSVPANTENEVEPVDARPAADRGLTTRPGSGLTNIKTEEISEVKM", "test": "Biacore S51 binding to immobilized biotinylated sAPPβ", "conditions": "Biacore S51, SA-coated sensor chip", "description": "as §1"}, "[6]": {"system": "BACE1", "test": "BACE cleavage of the full length APP", "format": "biochemical", "conditions": "result in words"}, "[7]": {"system": "BACE2", "test": "BACE2 cleavage of EV amyloid / Aβ (mass spectrometric analysis)", "format": "biochemical", "conditions": "100 μM; result in words", "description": "The effect of inhibition of BACE 2 cleavage of EV amyloid was assayed using a protocol described in Shi et al, 2003, J. Biol. Chem., 278:21286-21294. The results of assaying Examples 1-4 at 100 μM are shown below: […]"}, "[8]": {"target": "BACE 1 (Homo sapiens, UniProt P05067)", "sequence (P05067 whole entry K670N/M671F/D672E/A673V, form open)": "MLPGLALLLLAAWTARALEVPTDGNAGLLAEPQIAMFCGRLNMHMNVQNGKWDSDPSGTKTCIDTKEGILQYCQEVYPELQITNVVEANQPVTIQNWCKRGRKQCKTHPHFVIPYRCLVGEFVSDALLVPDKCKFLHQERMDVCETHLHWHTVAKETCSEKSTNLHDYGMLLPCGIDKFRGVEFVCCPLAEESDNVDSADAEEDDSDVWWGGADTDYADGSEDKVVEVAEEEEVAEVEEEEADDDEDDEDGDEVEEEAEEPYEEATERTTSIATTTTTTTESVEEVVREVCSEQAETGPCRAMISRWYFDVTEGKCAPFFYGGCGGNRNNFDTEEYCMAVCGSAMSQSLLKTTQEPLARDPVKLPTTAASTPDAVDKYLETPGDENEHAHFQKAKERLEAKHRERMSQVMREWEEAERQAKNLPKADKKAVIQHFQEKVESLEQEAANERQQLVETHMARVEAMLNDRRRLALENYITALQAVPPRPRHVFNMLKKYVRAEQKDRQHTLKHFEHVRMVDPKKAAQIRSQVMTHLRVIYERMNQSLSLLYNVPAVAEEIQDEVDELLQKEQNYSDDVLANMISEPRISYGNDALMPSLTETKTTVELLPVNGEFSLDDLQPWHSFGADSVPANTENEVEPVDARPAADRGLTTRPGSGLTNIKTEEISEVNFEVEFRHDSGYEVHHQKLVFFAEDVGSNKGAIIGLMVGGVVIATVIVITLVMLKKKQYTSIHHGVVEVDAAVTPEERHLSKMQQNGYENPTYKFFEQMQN", "test": "Western blot of BACE 1 cleavage of APP variant", "format": "biochemical", "conditions": "bacterially expressed APP variant, BACE 1 protein, 1 h at 37° C.; read-out: IC50, inhibition of BACE cleavage of APP (densitometric quantitation of Western blot)", "description": "A bacterially expressed APP variant containing an enhanced BACE cleavage sequence was incubated with Example 2 and BACE 1 protein for 1 h at 37° C. to conduct a Western blot analysis. The reaction was run on a gel and blotted. The BACE-specific cleavage product was detected using an antibody specifically recognizing the N-terminal product arising after BACE cleavage.\nFIG. 2(A) depicts the Western blot."}},
  "data": [
    {"compound": "O=C(O)COc1cc2c(cc1CCCOc1ccccc1)OC(CCc1ccccc1)C2", "note": "(centres unmarked) [Example 1, {[6-(3-phenoxypropyl)-2-(2-phenylethyl)-2,3-dihydro-1-benzofuran-5-yl]oxy} acetic acid]", "values": [
      {"measurement": "binding to APP", "setting": "[1]", "value": "binds APP"},
      {"measurement": "production of Aβ42 relative to Aβ40", "setting": "[2]", "value": "decrease the production of Aβ42 relative to the production of Aβ40"},
      {"measurement": "interaction with the APP variant near the antibody binding sites", "setting": "[3]", "value": "interacted with the APP variant within its Aβ domain, proximal to the C-terminal binding site"},
      {"measurement": "IC50", "setting": "[4]", "value": 29, "unit": "µM"},
      {"measurement": "binding to sAPPβ", "setting": "[5]", "value": "does not bind sAPPβ"},
      {"measurement": "inhibition of BACE (BACE1) cleavage/processing of full length APP", "setting": "[6]", "value": "inhibit both BACE processing of APP"}
    ]},
    {"compound": "O=C(O)COc1cc2c(cc1CCCOc1ccccc1Cl)OC(CCc1ccccc1)C2", "note": "(centres unmarked) [Example 2, {[6-[3-(2chlorophenoxy)propyl)-2-(2-phenylethyl)-2,3-dihydro-1-benzofuran-5-yl]oxy} acetic]", "values": [
      {"measurement": "effect on BACE2 cleavage at positions 19 and 20", "setting": "[7]", "value": "substantially enhanced cleavage at positions 19 and 20"},
      {"measurement": "IC50", "setting": "[8]", "value": 11, "unit": "µM"},
      {"measurement": "interaction with the APP variant near the antibody binding sites", "setting": "[3]", "value": "interacted with the APP variant within its Aβ domain, proximal to the C-terminal binding site"},
      {"measurement": "IC50", "setting": "[4]", "value": 8, "unit": "µM"},
      {"measurement": "inhibition of BACE (BACE1) cleavage/processing of full length APP", "setting": "[6]", "value": "inhibit both BACE processing of APP"}
    ]}
  ]
}
